Laboratory results reported in US20050215529A1, “Method of treating oxidative stress-associated conditions with isopentenyl diphosphate” (THE REGENTS OF THE UNIVERSITY OF MICHIGAN, priority 2004, published 2005).

Tests used:
[1] = system: human fibroblastoid M1 cells; test: Comet assay, protection against H2O2-induced DNA damage; assay type: cell-based; conditions: M1 cells; for IC50: AR agonists and isoprenyls, 100 μM H2O2, Comet assay, read-out: IC50 (pM), DNA damage protection; for triggering of DNA damage protection: various concentrations, 100 μM H2O2
Protocol: (§1) A single-cell gel electrophoresis (SCGE) assay, known as the “Comer” assay was performed to detect/quantify DNA damage by identifying DNA-strand breakage in individual cells, for example. The assay was performed using a kit commercially-available from Trevigen, Inc., of Gaithersburg, Md., as “CometAssay™.” See P. J. McCarthy et al. (1997) Mutagenesis 12:209-214; A. R. Collins et al. (2001) Biochem. Soc. Trans. 29:337-341. Sub-confluent cells were washed with phosphate buffered saline (PBS) and detached from the tissue culture flasks using a 0.05% trypsin solution. After centrifugation, the cells were washed and re-suspended in serum-free DMEM medium. The cells were divided into Eppendorf tubes (1.5 ml), and centrifuged at 2500 rotations per minutes (rpm) for ten minutes. Signal-modulating agents were added and samples were kept in a 37° C. incubator for thirty minutes. In some experiments, the cells were pre-incubated with various inhibitors for the indicated times at 37° C. At the end of the incubation period with signal-modulating chemicals, the cells were washed with PBS and treated with 100 μM H2O2 in 0.5 ml PBS on ice for twenty minutes. Following the hydrogen peroxide treatment, the cells were immediately microfuged for fifteen seconds. The cells were twice washed with cold PBS, and re-suspended at 1.0×10^5 cells/ml in ice-cold PBS. Five microliter cell suspension were each mixed with 50 μl molten LMAgarose and, thereafter, the mixtures were placed onto slides (CometSlide™).
(§2) The slides were placed at 4° C. in the dark for ten minutes and subsequently immersed in pre-chilled Lysis Solution at 4° C. for an additional thirty minutes. Following this incubation, excess buffer was tapped off from the slides. Subsequently, the slides were placed in a 50 ml Coplin jar containing alkali buffer for thirty minutes at room temperature in the dark and then immersed in 50 ml of TBE buffer for five minutes. The slides were then placed flat onto a gel tray submerged in TBE buffer in a horizontal electrophoresis apparatus, and aligned equidistant from the electrodes. Electrophoresis was performed at one volt per centimeter (cm) for ten minutes. Following this electrophoresis, the samples were fixed in 100% methanol for five minutes and 100% ethanol for five minutes. After drying, 50 μl of diluted SYBR Green Concentrate was added onto each circle of agarose. Comet tail fluorescence intensity was quantified with a Diagnostic Instruments digitized camera, mounted on a Nikon Eclipse E400 microscope, using Scion Image software. Quantification of comet fluorescence was performed as described in P. J. McCarthy et al. (1997) Mutagenesis 12:209-214. Each data point was derived from 30 to 100 individual cells. The data are shown either in arbitrary fluorescent units, or as % DNA damage protection (i.e., the percent decrement in tail fluorescence intensity with test reagent, relative to the intensity recorded in cells treated with hydrogen peroxide only)±S.E.M.
A dose response analysis of DNA damage protection also was performed to determine the efficacy of various doses of isopentenyl diphosphate versus 2-chloroadenosine. The analysis was carried out by pre-incubating human fibroblastoid M1 cells for thirty minutes with different concentrations of isopentenyl diphosphate or 2-chloroadenosine prior to incubating the cells with 100 μM H2O2 to induce oxidative stress. Following induction of oxidative stress, DNA damage was quantified using the Comet assay, as described above.

[2] = system: human fibroblastoid M1 cells; test: Comet assay, inhibition of 2CA- or IPP-mediated DNA damage protection by antagonists/inhibitors; assay type: cell-based; conditions: for effect on 2CA-mediated DNA damage protection / effect on IPP-mediated DNA damage protection: M1 cells pre-incubated with antagonist/inhibitor (lactacystin 5 μM, lovastatin 5 μM, GGTI-2147 0.2 μM, FTI-277 1 μM; others various concentrations), then 100 μM H2O2; for effect on 2CA-mediated DNA damage protection: then 2CA; for effect on IPP-mediated DNA damage protection: then IPP; for IC50: AR antagonists, M1 cells, 100 μM H2O2, Comet assay, read-out: IC50 (pM), block of 2CA-mediated DNA damage protection
Protocol: as §1, §2
Specifically, […], human fibroblastoid M1 cells were incubated for thirty minutes in either H-89 or 8-bromoguanosine-3′,5′-cyclic monophosphate (8-Br-cGMP) (B), or for fifteen minutes in SNAP, at different concentrations. […] Following induction of oxidative stress, DNA damage was quantified using the Comet assay, as described above. Shown in FIGS. 14-16 are graphs illustrating the DNA damage protection as function of the molar concentration of H-89 (FIG. 14), 8-Br-cGMP (FIG. 15), and SNAP (FIG. 16).
In yet another test, human fibroblastoid M1 cells were pre-incubated for fifteen minutes with different concentrations of the A2bAR antagonist, enprofylline (Enpro).

[3] = system: A1AR-transfected HEK293 cells; test: Comet assay in A1AR-transfected HEK293 cells; assay type: cell-based, human; conditions: A1AR-transfected HEK293 cells, 100 μM H2O2
Protocol: A single-cell gel electrophoresis (SCGE) assay, known as the “Comer” assay was performed to detect/quantify DNA damage by identifying DNA-strand breakage in individual cells, for example. The assay was performed using a kit commercially-available from Trevigen, Inc., of Gaithersburg, Md., as “CometAssay™.” See P. J. McCarthy et al. (1997) Mutagenesis 12:209-214; A. R. Collins et al. (2001) Biochem. Soc. Trans. 29:337-341. Sub-confluent cells were washed with phosphate buffered saline (PBS) and detached from the tissue culture flasks using a 0.05% trypsin solution. After centrifugation, the cells were washed and re-suspended in serum-free DMEM medium. The cells were divided into Eppendorf tubes (1.5 ml), and centrifuged at 2500 rotations per minutes (rpm) for ten minutes. Signal-modulating agents were added and samples were kept in a 37° C. incubator for thirty minutes. In some experiments, the cells were pre-incubated with various inhibitors for the indicated times at 37° C. At the end of the incubation period with signal-modulating chemicals, the cells were washed with PBS and treated with 100 μM H2O2 in 0.5 ml PBS on ice for twenty minutes. Following the hydrogen peroxide treatment, the cells were immediately microfuged for fifteen seconds. The cells were twice washed with cold PBS, and re-suspended at 1.0×10^5 cells/ml in ice-cold PBS. […]
The slides were placed at 4° C. in the dark for ten minutes and subsequently immersed in pre-chilled Lysis Solution at 4° C. for an additional thirty minutes. […] Comet tail fluorescence intensity was quantified with a Diagnostic Instruments digitized camera, mounted on a Nikon Eclipse E400 microscope, using Scion Image software. Quantification of comet fluorescence was performed as described in P. J. McCarthy et al. (1997) Mutagenesis 12:209-214. […] The data are shown either in arbitrary fluorescent units, or as % DNA damage protection (i.e., the percent decrement in tail fluorescence intensity with test reagent, relative to the intensity recorded in cells treated with hydrogen peroxide only)±S.E.M. […]

SMILES | triggering of DNA damage protection [1] | effect on 2CA-mediated DNA damage protection [2] | effect on IPP-mediated DNA damage protection [2] | other results
CC(C)=CCC/C(C)=C/CC/C(C)=C/CO[P@@](=O)(O)OP(=O)(O)O (stereo in doubt) [FPP, farnesyl diphosphate] |  |  |  | IC50 ([1]; Homo sapiens): > 1e+07 pM
CNC(=O)[C@H]1O[C@@H](n2cnc3c(NCc4cccc(I)c4)ncnc32)[C@H](O)[C@@H]1O [IB-MECA, N6-(3-iodobenzyl)adenosine-5′-N-methyluronamide] | failed to transduce the signal |  |  | IC50 [1]: > 1e+07 pM
CCNC(=O)[C@H]1O[C@@H](n2cnc3c(N)nc(NCCc4ccc(CCC(=O)O)cc4)nc32)[C@H](O)[C@@H]1O [CGS21680, 2-[p-2-(carbonyl-ethyl)-phenyethylamino]-5′-N-ethylcarboxaminoadenosine] | failed to transduce the signal |  |  | IC50 ([1]; Homo sapiens): > 3e+07 pM
CCCCC[C@H](O)/C=C/[C@H]1[C@H](O)CC(=O)[C@@H]1CCCCCCC(=O)O [PGE1, Prostaglandin E1] | induction of resistance to oxidative DNA damage |  |  | 
CC[C@H](C)C(=O)O[C@H]1C[C@@H](C)C=C2C=C[C@H](C)[C@H](CC[C@@H]3C[C@@H](O)CC(=O)O3)[C@H]21 [lovastatin] |  | did not similarly block 2CA-mediated DNA damage protection signaling | completely blocked IPP-mediated DNA damage protection signaling | 
CCNC(=O)C1OC(n2cnc3c(N)ncnc32)C(O)C1O (centres unmarked) [NECA, 5′-(N-ethylcarboxyamido)-adenosine] | triggered DNA damage protection |  |  | IC50 [1]: < 1000 pM
CCCn1c(=O)[nH]c(=O)c2nc[nH]c21 [Enprofylline, enprofylline] |  | effectively blocked the signal | the IPP-mediated effect was resistant | IC50 [2]: 1.8e+06 pM
COC(=O)[C@H](CC(C)C)NC(=O)c1ccc(NCc2cnc[nH]2)cc1-c1cccc2ccccc12 [GGTI-2147] |  | Neither GGTI-2147 (FIG. 24B) nor FTI-277 (FIG. 25) had a significant effect | effectively blocked IPP-mediated DNA damage protection | 
Nc1ncnc2c1nc(Br)n2[C@@H]1O[C@@H]2COP(=O)(O)O[C@H]2[C@H]1O [8-Br-cAMP, 8-bromo adenosine 3′,5′-cyclic monophosphate] | produced similar protection against oxidative DNA damage |  |  | DNA damage protection response [3]: responded efficiently
O=S(=O)(NCCNCC=Cc1ccc(Br)cc1)c1cccc2cnccc12 [H-89, N-[2-(p-bromocynnamylamino)ethyl]-5-isoquinolinesulfonamide] |  | dose-dependent inhibition of 2CA-mediated antioxidative signal | the IPP-mediated effect was resistant | 
COC(=O)[C@H](CCSC)NC(=O)c1ccc(NC[C@@H](N)CS)cc1-c1ccccc1 [FTI-277] |  | Neither GGTI-2147 (FIG. 24B) nor FTI-277 (FIG. 25) had a significant effect | had no effect on isopentenyl diphosphate activity | 
CCCn1c(=O)c2[nH]c(C3CCCC3)nc2n(CCC)c1=O [DPCPX, [(3)H]1,3-dipropyl-8-cyclopentylxanthine] |  | failed to block 2CA-mediated DNA damage protection |  | IC50 [2]: > 1e+07 pM
CCCn1c(=O)c2[nH]c(-c3ccc(OCC(=O)NCCN)cc3)nc2n(CCC)c1=O [XAC, xanthine amine congener] |  | effectively blocked the signal |  | IC50 [2]: 3.2e+06 pM
CC(C)=CCC/C(C)=C/CC/C(C)=C/CC/C(C)=C/COP(=O)(O)OP(=O)(O)O [GGPP, geranylgeranyl diphosphate] | effective in triggering antioxidative activity |  |  | IC50 [1]: 660 pM
CC(=O)N[C@@H](CSC(=O)[C@]1([C@@H](O)C(C)C)NC(=O)[C@H](C)[C@@H]1O)C(=O)O [lactacystin] |  | did not similarly block 2CA-mediated DNA damage protection signaling | blocked IPP-mediated DNA damage protection signaling | 
CC(=O)N[C@@H](C(=O)O)C(C)(C)SN=O (racemic) [SNAP] |  | dose-dependent inhibition of 2CA-mediated antioxidative signal |  | 
Cn1c(=O)c2c(nc(C=Cc3cccc(Cl)c3)n2C)n(C)c1=O [CSC, 8-(3-chlorostyryl) caffeine] |  | failed to block 2CA-mediated DNA damage protection |  | IC50 ([2]; Homo sapiens): > 1e+07 pM
Nc1nc2c(nc(Br)n2[C@@H]2O[C@@H]3COP(=O)(O)O[C@H]3[C@H]2O)c(=O)[nH]1 [8-Br-cGMP, 8-bromoguanosine-3′,5′-cyclic monophosphate] |  | dose-dependent inhibition of 2CA-mediated antioxidative signal |  | 
C=C(C)CCOP(=O)(O)O [IMP, isopentenyl monophosphate] | failed to trigger antioxidative signaling |  |  | IC50 [1]: > 1e+07 pM
